Measured values: patent publication US7314726B2, “Beta secretase exosite binding peptides and methods for identifying beta secretase modulators” (Bristol-Myers Squibb Company, priority 2002, dated 2008)
Alexa488 = Alexa Fluor 488 fluorescent label

What was measured:
[1] = target: T1, BACE (Homo sapiens, UniProt P56817); experiment: Competitive binding assay, displacement of labeled EBP from BACE, fluorescence anisotropy; parameters: The cDNA for the catalytic domain of human BACE (residues 1-460) was PCR-amplified; human IgG1 heavy chain (C, cleaved yes); thrombin cleavage site (C); made in house; host or cells: CHO DG44 cells (stably transfected, secreted)
T1 sequence (P56817 46-460 limits assumed): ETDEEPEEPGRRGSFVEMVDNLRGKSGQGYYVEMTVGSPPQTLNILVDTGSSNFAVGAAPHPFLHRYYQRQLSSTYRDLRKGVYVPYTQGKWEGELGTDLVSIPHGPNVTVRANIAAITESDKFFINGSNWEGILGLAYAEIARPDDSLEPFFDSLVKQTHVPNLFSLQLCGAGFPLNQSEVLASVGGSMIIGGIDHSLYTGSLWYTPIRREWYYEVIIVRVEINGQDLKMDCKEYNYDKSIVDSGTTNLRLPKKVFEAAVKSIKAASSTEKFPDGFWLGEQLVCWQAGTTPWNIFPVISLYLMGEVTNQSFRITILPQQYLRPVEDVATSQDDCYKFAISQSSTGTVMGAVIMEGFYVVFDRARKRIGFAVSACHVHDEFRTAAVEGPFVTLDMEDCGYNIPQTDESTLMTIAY
Description: The competitive binding assay was carried out at pH 7.1 (PBS buffer) or pH 4.5 (50 mM acetate buffer). The fluorescence anisotropy was measured at 25° C. in an AVIV fluorometer. The excitation and emission wavelengths were set to 495 and 519 nm, respectively. The excitation and emission slit widths were 4 and 10 nm, respectively.
The initial anisotropy value was measured. A concentrated unlabeled peptide or compound stock was titrated into the above solution of EBP and BACE. The final concentration of unlabeled peptide or compound ranges from 20 to 20000 nM. After each addition, the solution was mixed for 10 times with a pipettor. The fluorescence anisotropy was averaged over a 5 minute period.
The change in anisotropy was converted to fractional occupancy based on the r0 and rb obtained from the binding assay. The fractional occupancy was then plotted against the concentration of the competing peptide or compound. (see, for example, FIG. 6) The Kd of the competing ligand was calculated from curve fitting using the program […]™ (Synergy Software, Reading, Pa.). The equation used to fit the competition data is identical to equation 4 in Lai et al., (2000) Arch. Biochem. Biophys. 381:278-284.
The truncated unlabeled peptides were screened at a single concentration of 10 μM at pH 4.5. The anisotropy values detected with Molecule X in the absence of inhibitor, i.e., truncated unlabeled peptide (ra) and in the presence of the inhibitor (rb) and the labeled peptide alone (r0) were used to calculate the percent of inhibition: 100 (ra-rb)/(ra-r0). The percent of inhibition was compared among the truncated peptides.

[2] = target: T1, BACE; experiment: Phage ELISA of phage-displayed peptides on immobilised BACE; format: binding; parameters: The cDNA for the catalytic domain of human BACE (residues 1-460) was PCR-amplified; human IgG1 heavy chain (C, cleaved yes); thrombin cleavage site (C); made in house; host or cells: CHO DG44 cells (stably transfected, secreted); conditions: clones from solid phase panning at pH 7.0
Description: Two highly selected and homologous 12 mer phage peptides bound BACE specifically and reproducibly in phage-ELISA tests. Bristol-Myers Squibb fUSE5-based C4C, C6C, 5- and 15 mer libraries, and M13-based C7C libraries, and 7- and 12 mer libraries obtained from New England Biolabs, Beverly, Mass. were panned for three cycles against BACE (produced as described herein in Example 3). BACE was immobilized by coating at 0.5 μg/well in 4 wells of Dynex Immulon 4HBX plates overnight at 4° C. in 0.1M NaHCO3 buffer, pH 9.0. Panning was by standard procedures at room temperature that involved blocking wells with 2% BSA in PBS and elution with 0.1M HCL, pH 2.2. The vector NTI alignment tool and visual inspection of sequences were employed to analyze the selected peptides.
After sequencing approximately 20-50 clones from each library after three cycles of selection, we prepared essentially all possible candidate clones (39 clones in total) for phage-ELISA to obtain direct evidence for affinity to BACE. […] We therefore sequenced additional 12 mer clones to try to find additional candidate clones. […] This […] (SEQ ID NO:20) peptide is homologous to […] (SEQ ID NO:19) and consistent with the specific binding of both those peptides to BACE. The […] (SEQ ID NO:20) peptide and […] (SEQ ID NO:19) peptides were the two most efficiently recovered clones with 13 and 9 copies, respectively. […]

[3] = target: T1, BACE; experiment: Isothermal titration calorimetry (ITC) of BACE and peptides; format: binding; parameters: The cDNA for the catalytic domain of human BACE (residues 1-460) was PCR-amplified; human IgG1 heavy chain (C, cleaved yes); thrombin cleavage site (C); made in house; host or cells: CHO DG44 cells (stably transfected, secreted); conditions: 25° C.
Description: Isothermal titration calorimetry was performed to determine quantitatively the binding affinities of BMS-561877 and BMS-561871 for β-secretase. Recombinant human BACE was expressed as a fusion protein with human IgG1, in Chinese hamster ovary (CHO) cells (Vassar et al., (1999) Science 286:735-741 and Haniu et al., (2000) J. Biol. Chem. 275:21099-21106).
This construct, referred to as BACE-T-IgG, also contained a protease cleavage site between BACE and IgG1, sensitive to human α-thrombin. The cDNA for the catalytic domain of human BACE (residues 1-460) was PCR-amplified and subcloned into the mammalian expression vector pTV1.6, upstream of a thrombin cleavage site linked to cDNA encoding human IgG1 heavy chain. The vector construct, pTV1.6-BACE-T-IgG, was used to produce stably transfected DHFR-deficient CHO DG44 cells, which were then scaled up using methotrexate for selection.
The clarified growth media harvested from CHO DG44 cells which contained the fusion protein was loaded onto a rProtein A SEPHAROSE™ column (5×20 cm, Amersham Pharmacia Biotech) using a peristaltic pump at 4° C., at 4 mL/min. The column was washed with Dulbecco's PBS, pH 7.1, 4 mL/min, until baseline absorbance at 280 nm was observed. BACE-T-IgG was eluted from the resin with 0.10 M citrate, pH 3.0, into tubes containing 0.5 volumes of 4 M Tris, pH 8. Fractions containing the fusion protein were dialyzed extensively using 12,000-14,000 […] MWCO membrane (UltraPURE, GIBCO BRL) against PBS, pH 7.1, at 4° C. The protein was sterile filtered (0.22 μm) and stored at 4° C.
To generate BACE for binding experiments, the fusion protein BACE-T-IgG was treated with human α-thrombin (Enzyme Research Labs, South Bend, Ind.) at a ratio of 1:500 (mass:mass) in Dulbecco's PBS, pH 7.1, at 37° C. for 2 hr. Human α-thrombin was removed by passing the sample over Benzamidine SEPHAROSE™ 6B column (Amersham Pharmacia Biotech). The cleaved IgG1 was captured by passing the solution over a rProtein A SEPHAROSE™ (Amersham Pharmacia Biotech) column, whereas the BACE passed through this column. The protein sample was further purified by concentrating to 10-15 mg/mL using a centrifugation concentration unit (Millipore Ultrafree 10 kDa MWCO, 15 mL unit) and loading onto a SUPERDEX™ 200 PC 3.2/30 gel-filtration column (Amersham Pharmacia Biotech). The column was run at 3 mL/min with Dulbecco's PBS, pH 7.1, at room temperature. Fractions containing BACE were combined, sterile filtered (0.22 μm) and stored at 4° C.
BACE was prepared for isothermal titrating calorimetry by extensive dialysis against fresh buffer at 4° C. using 12,000-14,000 […] MWCO dialysis membrane (UltraPURE, GIBCO BRL). […] Following 2 buffer changes, the protein was removed from the membrane and centrifuged (5 min×4000 g, 4° C.) to remove particulates. The protein was stored at 4° C. until needed for the calorimetry experiments. The protein concentration was determined by 10-fold dilution into the same buffer, and measuring the UV absorbance at 280 nm in a 1.00 cm pathlength cell (calculated value=1.22 AU=1.00 mg/mL protein, based on mean glycosylated molecular weight=53.5 kDa, and given amino acid composition). Final concentrations used in isothermal titrating calorimetry were typically 5.0 μM, containing a final concentration of 0.5% v/v DMSO.
Peptides were dissolved in the buffer dialysate from protein dialysis, and equal volumes of DMSO were added to each (0.5% v/v DMSO). The pH values of the solutions were adjusted as necessary to equal that of the buffer dialysate and protein sample within 0.01 pH units.

[4] = target: T2, catalytic domain of human BACE expressed in a CHO cell line (Homo sapiens, UniProt P56817); experiment: Fluorescently labeled EBP binding to BACE, fluorescence anisotropy; conditions: pH 4.5 (50 mM acetate), 25° C., 1:1 binding model; read-out: binding constant (Kd) of labeled EBP
T2 construct: The cDNA for the catalytic domain of human BACE (residues 1-460) was PCR-amplified; human IgG1 heavy chain (C, cleaved yes); thrombin cleavage site (C); made in house; host or cells: CHO DG44 cells (stably transfected, secreted)
T2 sequence (P56817 46-460 limits assumed): as above
Description: An assay to evaluate the binding of BACE to EBPs labeled with a fluorescent molecule (for example, but not limited to Alexa488) was developed. This assay uses the catalytic domain of human BACE expressed in a CHO cell line (according to Example 3) and labeled EBPs such as Molecule X shown in FIG. 4. The change in fluorescent anisotropy of the EBP peptide upon binding to BACE is monitored.
Peptides were dissolved in 100% DMSO (dimethyl sulfoxide) at 10 mM concentration, and then diluted 10-fold into deionized water. The concentration of the labeled peptides was determined by their absorbance at 495 nm (ε=71000 cm^−1M^−1). The concentration of selected unlabeled peptides was determined by their Tyr absorbance at 276 nm (ε=1390 cm^−1M^−1 per Tyr residue).
The binding was carried out at pH 7.1 (PBS buffer) and pH 4.5 (50 mM acetate buffer) in the presence of 1% DMSO. Fluorescence anisotropy was measured at 25° C. in an AVIV fluorometer. The excitation and emission wavelengths were set to 495 and 519 nm, respectively. The excitation and emission slit width were 4 and 10 nm, respectively. A concentrated BACE stock was used to titrate a 300 μl solution of 10 nM labeled EBP. The final BACE concentration ranges from 10 to 5000 nM. After the addition of BACE, the solution was mixed for 10 times with a pipettor. The fluorescence anisotropy was averaged over a 5 minute period.
The change in anisotropy was plotted against the BACE concentration (see, for example, FIG. 5). The Kd of the labeled EBP as well as the initial (r0) and final anisotropy (rb) of the labeled EBP were calculated from curve fitting using the program Kaleidagraph. The equation used to fit the binding data is identical to equation 1 in Lai et al., (2000) Arch. Biochem. Biophys. 381:278-284.

Molecule: CC[C@H](C)[C@H](NC(=O)[C@H](Cc1ccccc1)NC(=O)[C@H](Cc1ccc(O)cc1)NC(=O)[C@@H]1CCCN1C(=O)[C@H](Cc1ccc(O)cc1)NC(C)=O)C(=O)N1CCC[C@H]1C(=O)N[C@@H](CC(C)C)C(N)=O [BMS-593925, Tyr-Pro-Tyr-Phe-Ile-Pro-Leu]
- Kd ([1]; pH 4.5, displacement of Molecule Y1, read-out: Kd of unlabeled EBP by competition): 1200 nM

Molecule: Ac-ALYPYFLPISAK-NH2 [BMS-561877]
- phage ELISA binding to BACE [2]: specific binding to BACE

Molecule: Ac-HWPFFIRS-NH2 [BMS-655507]
- KA ([3]; 50 mM NaOAc, pH 4.5): 610000 M⁻¹
- Kd ([3]; 50 mM NaOAc, pH 4.5): 1640 nM
- TΔS ([3]; 50 mM NaOAc, pH 4.5): -5.46 kcal/mol
- ΔG ([3]; 50 mM NaOAc, pH 4.5): -7.90 kcal/mol
- ΔH ([3]; 50 mM NaOAc, pH 4.5): -13.35 kcal/mol
- KA ([3]; Dulbecco's PBS, pH 7.0): 1.09e+06 M⁻¹
- Kd ([3]; Dulbecco's PBS, pH 7.0): 914 nM
- TΔS ([3]; Dulbecco's PBS, pH 7.0): -9.81 kcal/mol
- ΔG ([3]; Dulbecco's PBS, pH 7.0): -8.23 kcal/mol
- ΔH ([3]; Dulbecco's PBS, pH 7.0): -18.04 kcal/mol

Molecule: LYPPYIF (Ac-LYPPYIF-NH2) [BMS-599271, scrambled peptide containing the same amino acids as BMS-593925]
- binding to BACE ([1]; scrambled peptide): does not bind to BACE

Molecule: Molecule Y2: analog of Molecule Y1 with different length of linker between Alexa488 and the peptide (Ac-YPYFIPL-Alexa488; also: linker between peptide and Alexa488 not given here)
- Kd [4]: 92 nM

Molecule: Molecule Y4: analog of Molecule Y1 with different length of linker between Alexa488 and the peptide (Ac-YPYFIPL-Alexa488; also: linker between peptide and Alexa488 not given here)
- Kd [4]: 62 nM
